# Measured values from patent US10881639B2, “Use of composition of multivitamin in preparing drug for stimulating gastrointestinal system motility” (Zensun (Shanghai) Science & Technology, Co., Ltd., priority 2015, dated 2021).
# Counter-ions that a name gives are not always drawn.
# Test system: mice with 2.5 mg/kg loperamide-induced constipation
# Experiment: Small intestinal propulsive rate of a charcoal solution in mice with 2.5 mg/kg loperamide-induced constipation, with positive controls (Example 2)
# Format: in vivo, mouse
# Conditions: for Effect on the small intestinal propulsive rate (%) vs model group, in words: positive drugs at 1× dose, loperamide-induced constipation mouse model; for Propulsive distance of the charcoal solution / Small intestinal propulsive rate: positive drugs intragastric: itopride 30.75, naloxone 5.0, domperidone 6.16, mosapride citrate 3.075 mg/kg, loperamide 2.5 mg/kg s.c., 20 min after charcoal
# Excerpt: 1.2 Experimental Animals Species: mouse Strains: C57BL/6 Gender and quantity: Female, 65 Animal week-age: 8-9 weeks Weight range: 19.0-25.0 g Animal sources: Shanghai Lingchang Biotechnology Co. LTD Animal certificate number: 2013001804393 2. Experimental Design and Methods 2.1 Test Grouping:
# Experimental animals were randomly divided into 8 groups (8 animals per group) by the random number table method.
# 2.2 Reagent Preparation 1) 0.5% CMC—Na solution: 2.0 g of CMC—Na powder was weighed and 300 ml ultra-pure water was slowly added thereto; the mixture was subjected to magnetic stirring until it was completely dissolved to reach a constant volume of 400 ml, thereby preparing a clear solution of 0.5%, which was stored at 4° C. for later use. 2) 1% Tween-80 in saline: 40 ml saline was accurately measured using a measuring cylinder and added into a 50 ml centrifuge tube; 400 μl Tween-80 was measured using a pipette and added into the centrifuge tube; and the mixture was subjected to vortex oscillation to be homogeneous and was then placed at room temperature for later use. 3) 5% charcoal solution: 100 g of Arabic gum was accurately weighed and 800 ml water was added thereto; and the solution was boiled until it was transparent. 50 g of activated carbon powder was weighed and added into the above solution and the mixture was boiled for three times. After the solution was cool, water was added to reach a constant volume of 1000 ml. 4) Group for the composition comprising B vitamins (9 components) and C vitamins (5×): one tablet of the composition comprising B vitamins (9 components) and C vitamins was taken; after its grinding, 19.5 ml of 0.5% CMC—Na was added; and the mixture was subjected to oscillation to become homogeneous, thereby forming a stable suspension. It was used immediately after its preparation. 5) Group for the composition comprising B vitamins (9 components) and C vitamins (1×): 2 ml of the suspension of the composition comprising B vitamins (9 components) and C vitamins (5×) was taken and 8 ml of 0.5% CMC—Na was added; and the mixture was subjected to oscillation to become homogeneous, thereby forming a stable suspension. It was used immediately after its preparation. 6) Domperidone: 32.52 ml of 0.5% CMC—Na was added after grinding of one domperidone tablet; and the mixture was subjected to oscillation to become homogeneous, thereby forming a stable suspension. It was used immediately after its preparation. 7) Mosapride citrate: 32.52 ml of 0.5% CMC—Na was added after grinding of one mosapride citrate tablet; and the mixture was subjected to oscillation to become homogeneous, thereby forming a stable suspension. It was used immediately after its preparation. […] It was used immediately after its preparation. […] It was used immediately after its preparation. 10) Loperamide: 5.0 mg of loperamide was accurately weighed and 20 ml of a saline solution with 1.0% Tween 80 was added thereto; after being subjected to oscillation to become homogeneous, the mixture was subjected to ultrasound for at least 5 minutes. This reagent was used immediately after it was prepared. 2.3 Test Methods
# After 30 minutes of administration, the control group was injected subcutaneously with the saline solution containing 1.0% Tween 80 while the other groups were injected subcutaneously with a loperamide solution in an injection volume of 10 ml/kg. After a subcutaneous injection for 30 minutes, an intragastric administration of the charcoal solution was performed at an administration volume of 10 ml/kg^[1,2,3].
# 2.4 Observation Index Small intestinal propulsive rate of the charcoal solution (%)=(the propulsive distance of the charcoal solution/total length of the small intestine)×100
# Twenty minutes after an intragastric administration of the charcoal solution, the animal was sacrificed by cervical dislocation and its abdominal cavity was immediately opened to separate the mesentery.
Structure (SMILES),"Effect on the small intestinal propulsive rate (%) vs model group, in words",Propulsive distance of the charcoal solution,Small intestinal propulsive rate,Small intestinal propulsive rate (listed as mosapride citrate),Small intestinal propulsive rate (hydrochloride),"Small intestinal propulsive rate (listed as itopride hydrochloride, hydrochloride)",Small intestinal propulsive rate (listed as domperidone)
"CCOc1cc(N)c(Cl)cc1C(=O)NCC1CN(Cc2ccc(F)cc2)CCO1 (stereo not drawn) [Mosapride Citrate, Mosapride citrate]",do not have the improvement effect,11.7 ± 2.1 cm,60.7 ± 12.1 %,20.1±5.7%,–,–,–
COc1ccc(C(=O)NCc2ccc(OCCN(C)C)cc2)cc1OC [Itopride hydrochloride],do not have the improvement effect,5.0 ± 1.2 cm,–,–,26.4 ± 7.0%,26.4±7.0%,–
O=c1[nH]c2ccccc2n1CCCN1CCC(n2c(=O)[nH]c3cc(Cl)ccc32)CC1 [Domperidone],do not have the improvement effect,4.0 ± 1.1 cm,20.1 ± 5.7%,–,–,–,19.5±3.8%
C=CCN1CC[C@]23c4c5ccc(O)c4O[C@H]2C(=O)CC[C@@]3(O)[C@H]1C5 [Naloxone],also has the improvement effect,3.9 ± 0.8 cm,19.5 ± 3.8%,–,–,–,–
